IC50, inhibition and Ki data for 20 compounds are collected here from ChEMBL document CHEMBL4043111, “Asymmetric synthesis and evaluation of epoxy-α-acyloxycarboxamides as selective inhibitors of cathepsin L” (Bioorg Med Chem, 2017).

Experiment [1] concerns the target T1, Procathepsin L (Homo sapiens, UniProt P07711). The experiment is described as follows: Inhibition of human liver cathepsin L peincubated for 5 mins followed by Z-FR-MCA addition by spectrofluorimetric method.
Target sequence in this assay (P07711 whole entry): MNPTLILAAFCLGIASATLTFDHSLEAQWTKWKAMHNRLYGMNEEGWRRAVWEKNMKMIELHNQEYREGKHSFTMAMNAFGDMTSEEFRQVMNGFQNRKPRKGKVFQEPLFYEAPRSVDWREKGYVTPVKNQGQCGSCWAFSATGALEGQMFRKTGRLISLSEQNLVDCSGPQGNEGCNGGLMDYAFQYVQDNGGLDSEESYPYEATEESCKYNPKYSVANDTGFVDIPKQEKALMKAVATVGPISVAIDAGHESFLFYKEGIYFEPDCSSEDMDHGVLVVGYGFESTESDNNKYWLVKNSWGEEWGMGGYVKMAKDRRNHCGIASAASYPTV
Experiment [2] deals with T1, Procathepsin L. In words: Reversible inhibition of human liver cathepsin L peincubated for 30 mins followed by addition of 3.5 uM of substrate Z-FR-MCA measured after 10 mins by spectrofluorimetric method.
Target sequence in this assay (P07711 whole entry): as above
A further experiment addresses T2, Cathepsin K (Homo sapiens, UniProt P43235).
T2 sequence (P43235 whole entry): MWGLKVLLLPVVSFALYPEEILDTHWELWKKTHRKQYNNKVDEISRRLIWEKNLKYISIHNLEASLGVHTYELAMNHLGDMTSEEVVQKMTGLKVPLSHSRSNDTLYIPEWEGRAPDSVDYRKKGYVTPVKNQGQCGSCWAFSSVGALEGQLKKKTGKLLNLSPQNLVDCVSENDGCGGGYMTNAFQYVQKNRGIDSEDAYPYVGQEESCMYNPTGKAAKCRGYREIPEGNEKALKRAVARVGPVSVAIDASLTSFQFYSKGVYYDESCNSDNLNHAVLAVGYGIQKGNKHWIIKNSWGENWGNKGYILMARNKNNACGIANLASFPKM
The experiment is described as follows: Inhibition of cathepsin K (unknown origin) peincubated for 5 mins followed by Z-FR-MCA addition by spectrofluorimetric method.

Experiment [3] concerns the target T1, Procathepsin L. The experiment is described as follows: Inhibition of human liver cathepsin L at 25 uM peincubated for 5 mins followed by Z-FR-MCA addition by spectrofluorimetric method relative to control.
Target sequence in this assay (P07711 114-333 limits assumed): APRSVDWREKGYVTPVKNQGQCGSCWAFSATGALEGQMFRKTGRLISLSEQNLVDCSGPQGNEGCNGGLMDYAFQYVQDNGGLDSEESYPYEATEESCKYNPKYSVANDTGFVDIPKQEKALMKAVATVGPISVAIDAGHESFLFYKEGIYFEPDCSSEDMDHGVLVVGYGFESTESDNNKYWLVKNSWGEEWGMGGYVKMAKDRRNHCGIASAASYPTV
In experiment [4] the target is T1, Procathepsin L. In words: Reversible inhibition of human liver cathepsin L peincubated for 30 mins followed by addition of 4 uM of substrate Z-FR-MCA measured after 10 mins by spectrofluorimetric method.
Target sequence in this assay (P07711 whole entry): as the sequence (P07711 whole entry) above
For experiment [5], the target named is T1, Procathepsin L. In words: Reversible inhibition of human liver cathepsin L peincubated for 30 mins followed by addition of 7 uM of substrate Z-FR-MCA measured after 10 mins by spectrofluorimetric method.
Target sequence in this assay (P07711 whole entry): as above
Experiment [6] has as its target T1, Procathepsin L. In words: Reversible inhibition of human liver cathepsin L peincubated for 30 mins followed by addition of 9 uM of substrate Z-FR-MCA measured after 10 mins by spectrofluorimetric method.
Target sequence in this assay (P07711 whole entry): as above
The target of experiment [7] is T3, Cathepsin K (Homo sapiens) (UniProt P43235).
T3 sequence (whole entry): T2 sequence (P43235 whole entry)
The experiment is described as follows: Inhibition of cathepsin K (unknown origin) at 25 uM peincubated for 5 mins followed by Z-FR-MCA addition by spectrofluorimetric method relative to control.

In experiment [8] the target is T1, Procathepsin L. In words: Reversible inhibition of human liver cathepsin L peincubated for 30 mins followed by addition of 4.5 uM of substrate Z-FR-MCA measured after 10 mins by spectrofluorimetric method.
Target sequence in this assay (P07711 whole entry): as above
The target in experiment [9] is T1, Procathepsin L. The experiment is described as follows: Reversible inhibition of human liver cathepsin L peincubated for 30 mins followed by addition of 8 uM of substrate Z-FR-MCA measured after 10 mins by spectrofluorimetric method.
Experiment [10] addresses T4, Cathepsin L2 (Homo sapiens) (UniProt O60911).
T4 sequence (whole entry): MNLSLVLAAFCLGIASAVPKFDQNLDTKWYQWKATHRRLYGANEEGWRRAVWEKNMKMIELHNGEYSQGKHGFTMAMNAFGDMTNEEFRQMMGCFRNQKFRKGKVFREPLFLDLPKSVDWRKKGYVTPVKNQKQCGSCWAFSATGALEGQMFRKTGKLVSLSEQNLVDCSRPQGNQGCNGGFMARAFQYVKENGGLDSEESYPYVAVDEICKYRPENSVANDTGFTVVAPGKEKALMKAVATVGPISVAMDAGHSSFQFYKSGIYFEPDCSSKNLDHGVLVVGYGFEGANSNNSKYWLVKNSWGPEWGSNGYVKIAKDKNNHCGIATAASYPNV
In words: Inhibition of cathepsin V (unknown origin) at 25 uM peincubated for 5 mins followed by Z-FR-MCA addition by spectrofluorimetric method relative to control.

The target in experiment [11] is T1, Procathepsin L. The experiment is described as follows: Reversible inhibition of human liver cathepsin L peincubated for 30 mins followed by addition of 6 uM of substrate Z-FR-MCA measured after 10 mins by spectrofluorimetric method.
In experiment [12] the target is T1, Procathepsin L. The experiment is described as follows: Reversible inhibition of human liver cathepsin L peincubated for 30 mins followed by addition of 5 uM of substrate Z-FR-MCA measured after 10 mins by spectrofluorimetric method.
Experiment [13] has as its target T1, Procathepsin L. In words: Uncompetitive inhibition of cathepsin L (unknown origin) peincubated for 30 mins followed by substrate Z-FR-MCA addition measured after 10 mins by spectrofluorimetric method.
Experiment [14] has as its target T1, Procathepsin L. In words: Reversible inhibition of human liver cathepsin L peincubated for 30 mins followed by addition of 5.5 uM of substrate Z-FR-MCA measured after 10 mins by spectrofluorimetric method.

Values joined by “and” are separate entries in the source; they are usually repeats but may differ in a detail not shown here. Equal entries are not always repeated. Active and inactive are the calls of the source. The calls are words filed in the database; no cut-off is given here.

In general, IC50 refers to the point on the concentration scale where inhibition reaches its midpoint. Consider `CCCCCCCC1OC1C(OC(=O)c1ccc(I)cc1)C(=O)NC1CCCCC1` (stereo not given), for which the IC50 at Procathepsin L [1] was 2200 nM and 4280 nM.

In general, inhibition refers to the percentage by which the read-out fell short of the control. Broadly, the Ki is a measure of affinity in units of concentration, obtained from inhibition or displacement. The low end stands for tighter binding, the high end for weaker binding. Consider `CCCCCCC[C@H]1O[C@@H]1C(OC(=O)c1ccc(I)cc1)C(=O)NC1CCCCC1` (mixture of isomers), for which the IC50 turned out to be 16.9 µM at Procathepsin L [2]; 5.72 µM on Cathepsin K; 11.5 µM against Procathepsin L [4]; 7.17 µM on Procathepsin L [5]; 6.09 µM against Procathepsin L [6]; 11.1 µM on Procathepsin L [8]. For the same compound, the half-inhibitory concentration (IC50) on Procathepsin L [9] worked out at 5.75 µM; against Procathepsin L [11] it was 5.26 µM; against Procathepsin L [12], 9.78 µM; against Procathepsin L [14], 5.13 µM. In addition, the inhibition against Procathepsin L [3] came to 98.5%; in [7], 78%; in experiment [10], 30.8%. This compound also returned an inhibitory constant (Ki) on Procathepsin L [13] of 1330 nM.

On Cathepsin K, `CCCCCCC[C@H]1O[C@@H]1C(OC(=O)c1ccccc1)C(=O)NC(C)(C)C` (mixture of isomers) returned an IC50 of 12.5 µM. Moreover, the inhibition against Procathepsin L [3] amounted to 86.4%; in experiment [7] it was 69.1%; in experiment [10] it was 43.5%.

The compound `CCCCCCCCNC(=O)C(OC(=O)CCCCCBr)[C@H]1O[C@@H]1c1ccccc1[N+](=O)[O-]` (mixture of isomers) yielded an inhibition at Procathepsin L [3] of 84%. The same compound registered an IC50 at Procathepsin L [1] of 8550 nM.

As for `CC(C)(C)NC(=O)C(OC(=O)c1ccccc1)[C@H]1O[C@@H]1c1ccccc1[N+](=O)[O-]` (mixture of isomers), the inhibition at Procathepsin L [3] is 10.5%; in [7], 21.5%; in [10], 21.3%.

As for `CCCC(=O)OC(C(=O)NCc1ccccc1)[C@H]1O[C@@H]1c1ccccc1[N+](=O)[O-]` (mixture of isomers), the inhibition amounted to 2.9% on Procathepsin L [3], 0% in [7] and 3.9% in experiment [10].

Regarding `CCCCCCC[C@H]1O[C@@H]1C(OC(=O)C1CCCCC1)C(=O)NC(C)(C)C` (mixture of isomers), the inhibition result on Procathepsin L [3] is “inactive”.

At Procathepsin L [3], `CCCCCCC[C@H]1O[C@@H]1C(OC(=O)C1CCCCC1)C(=O)NCCCC` (mixture of isomers) had an inhibition of 70%.

For the compound `CCCCCCC[C@H]1O[C@@H]1C(OC(=O)CC(C)C)C(=O)NCCCC` (mixture of isomers), the inhibition entry on Procathepsin L [3] is “inactive”.

Regarding `CCCCCCC[C@H]1O[C@@H]1C(OC(=O)CC(C)C)C(=O)NCc1ccccc1` (mixture of isomers), the inhibition on Procathepsin L [3] turned out to be 43%.

With `CCCCCCC[C@H]1O[C@@H]1C(OC(=O)CCCCCBr)C(=O)NC(C)(C)C` (mixture of isomers), the inhibition result on Procathepsin L [3] was “inactive”.

`CCCCCCC[C@H]1O[C@@H]1C(OC(=O)CCCCCBr)C(=O)NC1CCCCC1` (mixture of isomers) had an inhibition at Procathepsin L [3] of 69%.

Consider `CCCCCCC[C@H]1O[C@@H]1C(OC(=O)CCCCCBr)C(=O)NCCCC` (mixture of isomers), for which, at Procathepsin L [3], the inhibition came to 69%.

For the compound `CCCCCCC[C@H]1O[C@@H]1C(OC(=O)[C@H]1CCCN1C(=O)OC(C)(C)C)C(=O)NC(C)(C)C` (mixture of isomers), the inhibition on Procathepsin L [3] was determined as 67.3%; in experiment [7], 38.7%; in experiment [10], 0%.

At Procathepsin L [3], `CCCCCCC[C@H]1O[C@@H]1C(OC(=O)c1ccc(I)cc1)C(=O)NC(C)(C)C` (mixture of isomers) returned an inhibition of 65%.

Consider `CCCCCCC[C@H]1O[C@@H]1C(OC(=O)c1ccc(I)cc1)C(=O)NCCCC` (mixture of isomers), for which, on Procathepsin L [3], the inhibition was 74%.

Consider `CCCCCCC[C@H]1O[C@@H]1C(OC(=O)c1ccccc1)C(=O)NCC(=O)OC` (mixture of isomers), for which, on Procathepsin L [3], the inhibition result is “inactive”.

Turning to `CCCCCCCC1OC1C(OC(=O)c1ccc(I)cc1)C(=O)NC1CCCCC1` (mixture of isomers; form 1), the IC50 against Procathepsin L [1] worked out at 1130 nM.

Turning to `CCCCCCCC1OC1C(OC(=O)c1ccc(I)cc1)C(=O)NC1CCCCC1` (mixture of isomers; form 2), on Procathepsin L [1], it took 2020 nM to reach half-maximal inhibition (IC50).

As for `CCCCCCC[C@H]1O[C@@H]1C(OC(=O)[C@@H]1CCCN1C(=O)OC(C)(C)C)C(=O)NC(C)(C)C` (single isomer, unassigned), the inhibition against Procathepsin L [3] was 52.6%; in [7] it was 39.3%; in [10] it was 0%.
